The numbers were not newly measured in patent US20170360732A1, “Methods and Drug Therapies for Patency of Occluded Blood Vessels Following Angioplasty” (NephroGenesis, LLC, priority 2014, published 2017), which cites them from elsewhere.

The structures appear in SMILES notation. Where two headings read alike, the source gives them in different places.

Assay in data set [1]: not given
This is another data set of the same source.

Data set [2] concerns Type I and Type IV collagen. The conditions noted are these: 100 μM.
The subject of data set [3] is Type III collagen.
Data set [4] has as its target T1, lysyl oxidase (Homo sapiens, UniProt P28300).
T1 sequence (P28300 169-417): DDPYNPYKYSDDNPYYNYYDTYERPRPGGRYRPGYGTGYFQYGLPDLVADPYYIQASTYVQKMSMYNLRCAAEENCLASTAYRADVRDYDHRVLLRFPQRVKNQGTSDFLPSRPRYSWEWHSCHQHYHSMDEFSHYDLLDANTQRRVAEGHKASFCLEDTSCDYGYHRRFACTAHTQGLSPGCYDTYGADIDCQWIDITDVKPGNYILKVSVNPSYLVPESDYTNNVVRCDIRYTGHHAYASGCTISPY

Assay in data set [5]: not given
This is another data set of the same source.

Data set [6] has as its system vascular smooth muscle cells. The settings on record: 100 μM, cultured cells.
Data set [7] has as its system peripheral blood monocytes.
Data set [8] deals with arteries injured with balloon angioplasty. The settings on record: oral, 6 months, rabbit, vs controls.
The test system of data set [9] is vessel restenosis following angioplasty. The settings on record: 28 days, rabbit model of atherosclerosis.
Data set [10] relates to vascular smooth muscle cells. The settings on record: within 30 minutes.

The term half-life denotes the time in which the quantity being followed falls by half. `CC(C)(S)[C@@H](N)C(=O)O` [D-penicillamine]: for the setting “750 mg oral, patients”, the peak plasma level was 3.0 µg/mL and the “time to peak plasma level” value was at most 3 h. The plasma levels achieved with typical clinical uses (typical clinical uses of the drug) is 3000 ng/mL. Besides, the side effects result in [1] (intravenous administration) was “no reported side effects”. Also, the half-life in data set [1] (intravenous, patients with primary biliary cirrhosis) was 1.43 h.
Regarding `O=C1O[C@H]([C@@H](O)CO)C(O)=C1O` [ascorbic acid], the “increase of expression of Type I and Type IV collagen” value in data set [2] is reported as 200%-250%. Also, the “stimulatory effect upon Type III collagen” value in data set [3] was “no stimulatory effect”. Further, the “inhibition of lysyl oxidase activity” value in data set [4] (0.2 μM) is given as “up to 79%”; in [4] (2.0 μM, 1 hour after drug administration), 90%; in [4] (2.0 μM, within 5 minutes) it was “completely inhibited”; in data set [4] (10 μM, within 15 minutes) it was 100%. Further, in [5] (intravenous infusion, 70 gms/m2 (approximately 140 gms), 1000 mg/min, oncology patients), the maximum plasma concentration was 50 mM. Besides, in data set [5] (rapid intravenous infusion, 70-110 gm/M^2, oncology patients), the side effects result is on record as “no significant side effects”. The “reduction of vascular smooth muscle cell proliferation and migration” value in data set [6] is on record as “up to 16%”.
With `NCCN` [ethylenediamine], in data set [7], the “blocking of lysyl oxidase-stimulated monocyte migration” value is recorded as “blocked”.
Regarding `N#CCCN` [β-aminopropionitrile], the “reduction in cross-sectional diameter of the arteries injured with balloon angioplasty” value in [8] is listed as 60%. In addition, in [7], the “blocking of lysyl oxidase-stimulated monocyte migration” value is given as “blocked”. In data set [9], the “reduction of vessel restenosis following angioplasty” value is given as 33%. In addition, in data set [10], the “inhibition of migration of vascular smooth muscle cells” value is reported as 80%.
